ChEMBL document CHEMBL6127034, “Design, synthesis and biological evaluation of a novel PAK1 degrader for the treatment of triple negative breast cancer” (Bioorg Med Chem, 2024)
Activity calls are given as the source filed them. No cut-off for these calls is given here.

Legend:
[1] = target: T1, Serine/threonine-protein kinase PAK 1 (Homo sapiens, UniProt Q13153); test: Inhibition of PAK1 in human MDA-MB-231 cells at 5 uM incubated for 24 hrs by immunofluorescence based analysis; format: cell-based
T1 sequence (Q13153 whole entry): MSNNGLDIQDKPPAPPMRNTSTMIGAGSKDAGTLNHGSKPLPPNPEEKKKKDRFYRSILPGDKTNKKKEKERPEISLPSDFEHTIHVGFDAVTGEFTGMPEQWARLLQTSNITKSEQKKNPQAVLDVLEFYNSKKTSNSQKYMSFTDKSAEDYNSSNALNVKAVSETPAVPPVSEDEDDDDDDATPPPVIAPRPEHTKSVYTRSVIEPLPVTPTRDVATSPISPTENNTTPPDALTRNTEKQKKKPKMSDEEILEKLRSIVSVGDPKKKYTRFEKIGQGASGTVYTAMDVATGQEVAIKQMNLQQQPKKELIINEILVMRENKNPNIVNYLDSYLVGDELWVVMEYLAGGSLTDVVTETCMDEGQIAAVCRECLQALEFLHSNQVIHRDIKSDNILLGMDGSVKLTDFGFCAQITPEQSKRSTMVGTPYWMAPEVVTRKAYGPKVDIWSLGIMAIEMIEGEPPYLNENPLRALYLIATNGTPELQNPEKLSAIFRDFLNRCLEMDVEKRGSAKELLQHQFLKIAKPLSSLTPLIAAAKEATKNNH

MDA-MB-231 [2] = test: Inhibition of 3D-spherioid formation of human MDA-MB-231 cells at 2.5 uM by crystal violet staining based colony formation assay; format: functional, cell-based
MDA-MB-231 [3] = test: Induction of apoptosis in human MDA-MB-231 cells xenografted in BALB/c mouse assessed as decrease in ERK1/2 phosphorylation at Thr202/Tyr204 at 20 mg/kg, ip qd for 12 days by Western blot analysis; format: functional, organism-based; settings: time 12.0 day
MDA-MB-231 [4] = test: Induction of apoptosis in human MDA-MB-231 cells assessed as necrotic cells at 2.5 to 10 uM incubated for 48 hrs by Annexin V-FITC/PI staining based flow cytometry (reference value: 1.08 %); format: functional; settings: dose 2.5-10 µM
MDA-MB-231 [5] = test: Induction of apoptosis in human MDA-MB-231 cells xenografted in BALB/c mouse assessed as decrease in MMP-2 at 20 mg/kg, ip qd for 12 days by Western blot analysis; format: functional, organism-based; settings: time 12.0 day
MDA-MB-231 [6] = test: Induction of apoptosis in human MDA-MB-231 cells assessed as late apoptotic cells at 2.5 uM incubated for 12 to 48 hrs by Annexin V-FITC/PI staining based flow cytometry (reference value: 1.48 %); format: functional; settings: time 12-48 hrs
MDA-MB-231 [7] = test: Inhibition of cell migration in human MDA-MB-231 cells assessed as increase in E-Cadherin level by Western blot analysis; format: functional, cell-based; settings: time <= 48.0 hrs, TDE = time-dependent effect
MDA-MB-231 [8] = test: Induction of apoptosis in human MDA-MB-231 cells assessed as increase in cleaved caspase-8 level at 2.5 to 10 uM incubated upto 48 hrs by Western blot analysis; format: functional, cell-based; settings: dose 2.5-10 µM
MDA-MB-231 [9] = test: Induction of apoptosis in human MDA-MB-231 cells assessed as early apoptotic cells at 2.5 to 10 uM incubated for 48 hrs by Annexin V-FITC/PI staining based flow cytometry (reference value: 1.70 %); format: functional; settings: dose 2.5-10 µM
[10] = target: T2, von Hippel-Lindau disease tumor suppressor/Serine/threonine-protein kinase PAK 1 (Homo sapiens, UniProt Q13153+P40337); test: PROTAC activity at VHL/PAK1 in human MDA-MB-231 cells assessed as fold change in protein expression at 2.5 uM incubated for 48 hrs by Western blot analysis relative to control; format: cell-based
T2 sequence (Q13153 2-545 limits assumed): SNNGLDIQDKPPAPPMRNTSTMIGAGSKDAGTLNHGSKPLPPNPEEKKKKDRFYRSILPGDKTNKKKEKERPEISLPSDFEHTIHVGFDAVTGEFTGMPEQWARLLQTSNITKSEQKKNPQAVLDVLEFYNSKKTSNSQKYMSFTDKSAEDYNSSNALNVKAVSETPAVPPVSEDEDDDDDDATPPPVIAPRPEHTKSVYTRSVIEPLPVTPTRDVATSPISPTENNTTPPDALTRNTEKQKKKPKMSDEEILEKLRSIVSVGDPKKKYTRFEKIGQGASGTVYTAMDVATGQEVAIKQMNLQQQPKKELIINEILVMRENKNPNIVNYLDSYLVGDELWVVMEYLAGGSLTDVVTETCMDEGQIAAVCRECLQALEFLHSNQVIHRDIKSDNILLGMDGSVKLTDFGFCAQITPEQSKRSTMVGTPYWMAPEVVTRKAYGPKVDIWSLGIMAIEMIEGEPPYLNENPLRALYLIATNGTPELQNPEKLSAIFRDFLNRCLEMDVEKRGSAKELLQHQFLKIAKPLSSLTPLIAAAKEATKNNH
T2 sequence (P40337 whole entry partner): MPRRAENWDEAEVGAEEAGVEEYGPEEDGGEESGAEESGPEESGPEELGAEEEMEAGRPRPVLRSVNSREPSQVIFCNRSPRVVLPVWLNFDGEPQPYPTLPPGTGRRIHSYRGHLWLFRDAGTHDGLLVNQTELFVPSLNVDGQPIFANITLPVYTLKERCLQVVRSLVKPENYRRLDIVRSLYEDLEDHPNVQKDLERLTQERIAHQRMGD

[11] = target: Serine/threonine-protein kinase PAK 3 (Homo sapiens) (UniProt O75914); test: Inhibition of PAK3 in human MDA-MB-231 cells incubated upto 48 hrs by Western blot analysis; format: cell-based
Serine/threonine-protein kinase PAK 3 (Homo sapiens), sequence (O75914 whole entry, looked up): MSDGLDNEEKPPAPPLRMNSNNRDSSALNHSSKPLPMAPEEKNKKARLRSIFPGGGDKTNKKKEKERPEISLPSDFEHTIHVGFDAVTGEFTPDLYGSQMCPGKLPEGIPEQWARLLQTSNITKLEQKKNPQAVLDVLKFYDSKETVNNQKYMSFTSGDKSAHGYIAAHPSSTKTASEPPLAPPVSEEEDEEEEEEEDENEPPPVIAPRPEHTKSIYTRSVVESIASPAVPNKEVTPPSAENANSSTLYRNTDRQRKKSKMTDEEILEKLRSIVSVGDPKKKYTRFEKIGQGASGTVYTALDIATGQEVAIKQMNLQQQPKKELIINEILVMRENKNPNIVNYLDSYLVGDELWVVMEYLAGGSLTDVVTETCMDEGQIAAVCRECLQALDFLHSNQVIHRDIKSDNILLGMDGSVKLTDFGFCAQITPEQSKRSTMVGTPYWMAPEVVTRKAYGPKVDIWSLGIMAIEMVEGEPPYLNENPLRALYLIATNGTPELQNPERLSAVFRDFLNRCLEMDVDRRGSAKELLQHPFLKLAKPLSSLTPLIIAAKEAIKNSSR

[12] = target: T1, Serine/threonine-protein kinase PAK 1; test: In vivo inhibition of PAK1 in human MDA-MB-231 cells xenografted in BALB/c mouse at 20 mg/kg, ip qd for 12 days by Western blot analysis; format: functional, organism-based; settings: time 12.0 day
MDA-MB-231 [13] = test: Antitumor activity against human MDA-MB-231 cells xenografted in BALB/c mouse assessed as reduction in tumor volume at 20 mg/kg, ip qd for 12 days; format: functional, organism-based; settings: time 12.0 day
[14] = Toxicity in BALB/c mouse xenografted with human MDA-MB-231 cells assessed as animal growth at 20 mg/kg, ip qd for 12 days; format: organism-based; settings: in vivo, 288 h, time 12 day
[15] = target: T1, Serine/threonine-protein kinase PAK 1; test: Inhibition of PAK1 phosphorylation at S199 in human MDA-MB-231 cells incubated upto 48 hrs by Western blot analysis; format: cell-based
[16] = target: T1, Serine/threonine-protein kinase PAK 1; test: In vivo inhibition of PAK1 phosphorylation at S199 in human MDA-MB-231 cells xenografted in BALB/c mouse at 20 mg/kg, ip qd for 12 days by Western blot analysis; format: functional, organism-based; settings: time 12.0 day
MDA-MB-231 [17] = test: Induction of apoptosis in human MDA-MB-231 cells assessed as viable cells at 2.5 to 10 uM incubated for 12 hrs by Annexin V-FITC/PI staining based flow cytometry (reference value: 94.8 %); format: functional; settings: dose 2.5-10 µM
[18] = target: T2, von Hippel-Lindau disease tumor suppressor/Serine/threonine-protein kinase PAK 1; test: PROTAC activity at VHL/PAK1 in human MDA-MB-231 cells assessed as induction of protein degradation at 2.5 uM incubated for 48 hrs by Western blot analysis relative to control; format: cell-based
MDA-MB-231 [19] = test: Antiproliferative activity against human MDA-MB-231 cells assessed as decrease in colony formation by crystal violet staining based analysis; format: functional, cell-based; settings: dose <= 10.0 µM
MDA-MB-231 [20] = test: Inhibition of cell migration in human MDA-MB-231 cells upto 10 uM incubated upto 48 hrs by wound healing assay; format: functional, cell-based
[21] = target: T1, Serine/threonine-protein kinase PAK 1; test: Inhibition of PAK1 in human MDA-MB-231 cells assessed as decrease in ERK1/2 phosphorylation at Thr202/Tyr204 incubated upto 48 hrs by Western blot analysis; format: cell-based
MDA-MB-231 [22] = test: Antiproliferative activity against human MDA-MB-231 cells assessed as decrease in green fluorescence by EdU staining based analysis; format: functional, cell-based
[23] = target: T2, von Hippel-Lindau disease tumor suppressor/Serine/threonine-protein kinase PAK 1; test: PROTAC activity at VHL/PAK1 in human MDA-MB-231 cells assessed as induction of protein degradation incubated for 48 hrs in presence of VHL by Western blot analysis; format: cell-based
MDA-MB-231 [24] = test: Induction of apoptosis in human MDA-MB-231 cells assessed as viable cells at 2.5 to 10 uM incubated for 48 hrs by Annexin V-FITC/PI staining based flow cytometry (reference value: 94.8 %); format: functional; settings: dose 2.5-10 µM
MDA-MB-231 [25] = test: Induction of apoptosis in human MDA-MB-231 cells assessed as early apoptotic cells at 2.5 uM incubated for 12 to 48 hrs by Annexin V-FITC/PI staining based flow cytometry (reference value: 1.12 %); format: functional; settings: time 12-48 hrs
[26] = target: T2, von Hippel-Lindau disease tumor suppressor/Serine/threonine-protein kinase PAK 1; test: PROTAC activity at VHL/PAK1 in human MDA-MB-231 cells assessed as induction of protein degradation incubated for 48 hrs in presence of Bortezomib by Western blot analysis; format: cell-based
MDA-MB-231 [27] = test: Induction of apoptosis in human MDA-MB-231 cells assessed as early apoptotic cells at 2.5 to 10 uM incubated for 12 hrs by Annexin V-FITC/PI staining based flow cytometry (reference value: 1.70 %); format: functional; settings: dose 2.5-10 µM
MDA-MB-231 [28] = test: Inhibition of cell migration in human MDA-MB-231 cells at 2.5 uM incubated for 24 hrs by transwell assay; format: functional, cell-based
MDA-MB-231 [29] = test: Antitumor activity against human MDA-MB-231 cells xenografted in BALB/c mouse assessed as reduction in tumor growth rate at 20 mg/kg, ip qd for 12 days; format: functional, organism-based; settings: time 12.0 day
MDA-MB-231 [30] = test: Antiproliferative activity against human MDA-MB-231 cells incubated for 48 hrs by MTT assay; format: functional, cell-based; settings: MDA-MB-231, 48 h
[31] = target: T2, von Hippel-Lindau disease tumor suppressor/Serine/threonine-protein kinase PAK 1; test: PROTAC activity at VHL/PAK1 in human MDA-MB-231 cells assessed as induction of protein degradation at 0.1 uM incubated for 48 hrs by Western blot analysis relative to control; format: cell-based
MDA-MB-231 [32] = test: Inhibition of formation of human MDA-MB-231 cells tumor sphere by crystal violet staining based analysis; format: functional, cell-based; settings: time <= 48.0 hrs, TDE = time-dependent effect
MDA-MB-231 [33] = test: Inhibition of cell proliferation of human MDA-MB-231 cells at 2.5 uM by EdU staining based analysis; format: functional
MDA-MB-231 [34] = test: Inhibition of cell proliferation of human MDA-MB-231 cells assessed as decrease in Ki-67 expression at 2.5 uM incubated for 24 hrs by immunofluorescence based analysis; format: functional

inhibition [1]: Active
fold change (FC) [10]: 0.29
inhibition [11]: inactive
inhibition [12]: Active
inhibition [15]: Active
inhibition [16]: Active
Activity [18]: 71%
inhibition [21]: Active
Activity [23]: inactive
Activity [26]: inactive
IC50 (MDA-MB-231 [30]): 1270 nM
Activity [31]: 52.4%
SMILES: Cc1ncsc1-c1ccc([C@H](C)NC(=O)[C@@H]2C[C@@H](O)CN2C(=O)[C@@H](NC(=O)CCc2cn(CCCCCCCn3c(=O)c(-c4ccc(Cl)cc4Cl)cc4cnc(NC5CC5)nc43)nn2)C(C)(C)C)cc1
inhibition (MDA-MB-231 [2]): Active
Activity (MDA-MB-231 [3]): Active
Activity (MDA-MB-231 [4]): 1.74%
Activity (MDA-MB-231 [5]): Active
Activity (MDA-MB-231 [6]): 8.21%
inhibition (MDA-MB-231 [7]): Tde
Activity (MDA-MB-231 [8]): Active
Activity (MDA-MB-231 [9]): 37.9%
Activity (MDA-MB-231 [13]): Active
Activity [14]: Non-Toxic
Activity (MDA-MB-231 [17]): 86.3%
Activity (MDA-MB-231 [19]): Dose-Dependent Effect
inhibition (MDA-MB-231 [20]): Active
Activity (MDA-MB-231 [22]): Active
Activity (MDA-MB-231 [24]): 55.4%
Activity (MDA-MB-231 [25]): 5.62%
Activity (MDA-MB-231 [27]): 4.37%
inhibition (MDA-MB-231 [28]): Active
Activity (MDA-MB-231 [29]): Active
inhibition (MDA-MB-231 [32]): Tde
inhibition (MDA-MB-231 [33]): Active
inhibition (MDA-MB-231 [34]): Active
